Values quoted from earlier work in patent US20230190754A1, “Therapeutic combinations for the treatment of Progressive Fibrosing interstitial lung diseases” (Boehringer Ingelheim International GmbH, priority 2021, published 2023).

Test system: PDE4 subtypes, A-D
Settings: cited from earlier work
For N#Cc1ccc(Oc2ccc3c(c2)COB3O)cc1 [crisaborole], the “Preferential enzymatic inhibition among the PDE4 subtypes (in words)” value is listed as “None of these show any preferential enzymatic inhibition”. In the case of O=C(Nc1c(Cl)cncc1Cl)c1ccc(OC(F)F)c(OCC2CC2)c1 [roflumilast], the “Preferential enzymatic inhibition among the PDE4 subtypes (in words)” value is given as “None of these show any preferential enzymatic inhibition”. In the case of CCOc1cc([C@@H](CS(C)(=O)=O)N2C(=O)c3cccc(NC(C)=O)c3C2=O)ccc1OC [apremilast], the “Preferential enzymatic inhibition among the PDE4 subtypes (in words)” value is listed as “None of these show any preferential enzymatic inhibition”.
